One assay concerns U251-MG cells. Format: cell-based, human. On the procedure: The migration and invasion assays were performed with Boyden chambers, according to De Vincenzo et al., using 11 × 10^4 U87-MG and U251-MG glioblastoma cells/sample pre-treated for 40 min at 37 °C with the indicated effectors and then allowed to migrate for 3 h or to invade for 5 h at 37 °C toward 5% FBS in DMEM/0.1% BSA. The migrated or invaded cells were reported as a percentage of basal random migration or invasion and analyzed as reported in the Statistical Analyses section. The migration and invasion experiments were conducted in triplicate.
Figure 4 Binding and biological effect of selected Ala peptides on U251-MG migration and invasion. (A) A binding assay was performed using U251-MG cells, as described in the legend of Figure 1. (B) The directional migration toward 10% FBS of U251-MG cells was performed in Boyden chambers, in the presence of the indicated peptides, as described in the legend of Figure 1. (C) An invasion assay was performed toward 5% FBS of U251-MG cells in Boyden chambers, in the presence of the indicated peptides. For all migration and invasion assays, the p-values are ≤0.001, apart from [Ala^1]uPAcyclin with a p ≤ 0.05.

Assay [1] has as its target T1, αV integrin on U251-MG cells (Homo sapiens, UniProt P06756).
T1 construct: endogenous in cells; host or cells: U251-MG human glioblastoma cells (acid-treated, 4 °C)
Put plainly: Receptor binding assay: displacement of FITC-uPAcyclin from U251-MG cells. The conditions noted are these: competition with FITC-uPAcyclin. On the procedure: The U87-MG and U251-MG cell lines were harvested and acid-treated, as described. Briefly, 2 × 10^6 cells/sample were pre-incubated for 30 min at 4 °C with uPAcyclin and Ala peptides and subsequently exposed to 50 nM FITC-uPAcyclin for 2 h at 4 °C, as described. The experiments were performed three times, with duplicate samples, and analyzed as reported in the statistical analysis.
To rule out the possibility that the effects observed may be restricted to a single cell line, testing was extended to the U251-MG cell line, derived from a human glioblastoma with a mesenchymal-like phenotype with a lower proliferative capacity than U87-MG cells. This cell line was analyzed for the ability to specifically bind the FITC-uPAcyclin, in the presence of increasing concentrations of unlabeled [Ala^2,Ala^5]uPAcyclin, together with the parent uPAcyclin and the selected cyclopeptides [Ala^1]uPAcyclin, [Ala^4]uPAcyclin and [Ala^8]uPAcyclin (Figure 4A). In particular, [Ala^1]uPAcyclin and [Ala^8]uPAcyclin were selected for their contrasting affinity/activity observed on U87-MG glioblastoma cells, while [Ala^4]uPAcyclin was chosen to confirm the importance of Ser4 both in binding and in the anti-migratory activity of uPAcyclin.
Figure 4 Binding and biological effect of selected Ala peptides on U251-MG migration and invasion. […]

Consider three compounds from PMC11853379, “Glioblastoma Cell Migration, Invasion and Vasculogenic Mimicry Downmodulated by Novel uPAcyclin Derivatives” (Cells, 2025).

Read-outs that look alike come from different tables or passages of the source. Positions of bridges follow the written chain, without caps; N, C: chain ends. Residues, ends and D or L forms follow the SMILES beside them.

T1 sequence (P06756 31-889 limits assumed): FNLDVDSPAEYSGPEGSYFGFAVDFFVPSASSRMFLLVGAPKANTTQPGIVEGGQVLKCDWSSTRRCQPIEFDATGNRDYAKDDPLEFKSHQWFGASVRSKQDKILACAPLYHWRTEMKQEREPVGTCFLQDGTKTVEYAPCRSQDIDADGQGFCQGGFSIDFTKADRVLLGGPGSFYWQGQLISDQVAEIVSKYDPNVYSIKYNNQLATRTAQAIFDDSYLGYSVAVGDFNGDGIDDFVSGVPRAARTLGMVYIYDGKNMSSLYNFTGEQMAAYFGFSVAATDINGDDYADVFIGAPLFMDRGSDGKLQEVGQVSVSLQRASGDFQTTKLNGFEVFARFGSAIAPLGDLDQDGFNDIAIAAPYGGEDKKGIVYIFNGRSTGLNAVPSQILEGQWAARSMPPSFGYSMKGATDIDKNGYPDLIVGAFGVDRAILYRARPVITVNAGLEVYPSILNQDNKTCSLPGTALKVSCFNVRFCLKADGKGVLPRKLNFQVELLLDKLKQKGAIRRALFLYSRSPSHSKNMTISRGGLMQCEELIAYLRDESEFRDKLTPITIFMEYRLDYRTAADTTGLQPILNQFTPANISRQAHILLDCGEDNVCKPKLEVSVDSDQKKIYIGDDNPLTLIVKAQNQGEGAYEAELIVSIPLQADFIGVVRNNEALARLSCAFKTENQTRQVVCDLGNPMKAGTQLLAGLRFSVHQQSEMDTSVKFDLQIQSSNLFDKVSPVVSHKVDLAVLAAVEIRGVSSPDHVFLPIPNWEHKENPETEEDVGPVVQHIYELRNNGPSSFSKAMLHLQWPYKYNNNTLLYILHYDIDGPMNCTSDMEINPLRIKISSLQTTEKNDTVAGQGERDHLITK
T1 sequence (P06756 891-1048 limits assumed): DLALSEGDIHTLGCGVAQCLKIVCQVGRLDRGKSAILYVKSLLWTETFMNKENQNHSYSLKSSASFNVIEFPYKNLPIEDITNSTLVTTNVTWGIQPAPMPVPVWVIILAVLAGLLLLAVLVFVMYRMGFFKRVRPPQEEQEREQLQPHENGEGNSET

For the compound `CC(=O)N[C@@H](CCCCN)C(=O)N[C@@H](C)C(=O)N[C@H]1CCC(=O)NCCCC[C@@H](C(N)=O)NC(=O)[C@H](CC(C)C)NC(=O)[C@H](CCC(=O)O)NC(=O)[C@H](CCC(=O)O)NC(=O)[C@@H]2CCCN2C(=O)[C@H](C)NC(=O)[C@H](CO)NC1=O` [[Ala^2,Ala^5]uPAcyclin] (Ac-KAESAPEELK-NH2; lactam 3-10), the IC50 with U251-MG cells (3 h) and in the assay on U251-MG cells (5 h) was under 1 pM in each case. For the same compound, the “binding to U251-MG cells (in words)” value in assay [1] is reported as “binds with the highest affinity”.
Take `CC(=O)N[C@@H](CCCCN)C(=O)N1CCC[C@H]1C(=O)N[C@H]1CCC(=O)NCCCC[C@@H](C(N)=O)NC(=O)[C@H](CC(C)C)NC(=O)[C@H](C)NC(=O)[C@H](CCC(=O)O)NC(=O)[C@@H]2CCCN2C(=O)[C@@H]2CCCN2C(=O)[C@H](CO)NC1=O` [[Ala^8]uPAcyclin] (Ac-KPESPPEALK-NH2; lactam 3-10): in the assay with U251-MG cells (U251-MG), the “inhibition of invasion (in words)” value is “most active among the Ala variants” and the “inhibition of migration (in words)” value is reported as “most active among the Ala variants”.
Take `CC(=O)N[C@@H](CCCCN)C(=O)N1CCC[C@H]1C(=O)N[C@H]1CCC(=O)NCCCC[C@@H](C(N)=O)NC(=O)[C@H](CC(C)C)NC(=O)[C@H](CCC(=O)O)NC(=O)[C@H](CCC(=O)O)NC(=O)[C@@H]2CCCN2C(=O)[C@@H]2CCCN2C(=O)[C@H](CO)NC1=O` [uPAcyclin] (Ac-KPESPPEELK-NH2; lactam 3-10): the “binding to U251-MG cells (in words)” value in assay [1] is listed as “dose-dependent decrease in cell-associated fluorescence”.

A word on the IC50: it is the concentration at which inhibition is half-maximal. Read a high IC50 as weaker potency.
